{
  "source": "ChEMBL document CHEMBL5352441",
  "about": "“Modulation of FLT3-ITD and CDK9 in acute myeloid leukaemia cells by novel proteolysis targeting chimera (PROTAC)” (2022)",
  "key": {"[1]": {"target": "Protein cereblon/Cyclin-dependent kinase 9 (Homo sapiens) (UniProt P50750+Q96SW2)", "sequence (P50750 whole entry, looked up)": "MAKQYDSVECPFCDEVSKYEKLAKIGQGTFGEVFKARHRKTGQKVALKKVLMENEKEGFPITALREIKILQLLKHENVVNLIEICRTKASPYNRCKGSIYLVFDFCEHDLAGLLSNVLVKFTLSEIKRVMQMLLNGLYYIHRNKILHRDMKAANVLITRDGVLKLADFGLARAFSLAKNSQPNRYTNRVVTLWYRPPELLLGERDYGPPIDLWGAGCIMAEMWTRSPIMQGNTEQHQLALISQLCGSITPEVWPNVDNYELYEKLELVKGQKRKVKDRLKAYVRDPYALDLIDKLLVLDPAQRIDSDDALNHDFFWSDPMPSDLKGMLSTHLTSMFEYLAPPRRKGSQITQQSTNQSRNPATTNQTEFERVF", "sequence (Q96SW2 whole entry, looked up)": "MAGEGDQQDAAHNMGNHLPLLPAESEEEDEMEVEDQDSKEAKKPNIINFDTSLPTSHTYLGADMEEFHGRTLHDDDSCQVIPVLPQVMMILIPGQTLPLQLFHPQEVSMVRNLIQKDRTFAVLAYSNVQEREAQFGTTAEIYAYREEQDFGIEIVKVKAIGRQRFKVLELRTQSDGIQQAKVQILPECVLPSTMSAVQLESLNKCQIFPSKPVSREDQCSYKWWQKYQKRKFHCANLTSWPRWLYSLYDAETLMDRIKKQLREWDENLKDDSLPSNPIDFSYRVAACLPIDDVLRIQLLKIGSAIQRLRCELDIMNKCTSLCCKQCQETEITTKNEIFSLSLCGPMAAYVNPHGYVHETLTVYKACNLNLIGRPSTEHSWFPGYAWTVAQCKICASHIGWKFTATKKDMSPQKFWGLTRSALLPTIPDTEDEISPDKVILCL", "test": "PROTAC activity at CRBN/CDK9 in CRBN-deficient human MV4-11 cells assessed as induction of protein degradation at 0.004 to 2.5 uM incubated for 16 hrs by immunoblot analysis", "type": "cell-based", "conditions": "dose 0.004-2.5 µM"}, "MV4-11 [2]": {"system": "MV4-11", "test": "Induction of cell cycle arrest in CRBN-deficient human MV4-11 cells assessed as accumulation of cells at G2/M phase at 0.004 uM incubated for 16 hrs by PI staining based flow cytometry analysis (reference value: 9.34%)", "type": "functional"}, "MV4-11 [3]": {"system": "MV4-11", "test": "Induction of cell cycle arrest in human MV4-11 cells assessed as accumulation of cells at subG1 phase at 0.02 uM incubated for 16 hrs by PI staining based flow cytometry analysis (reference value: 10.51%)", "type": "functional"}, "[4]": {"target": "T1, Protein cereblon/Receptor-type tyrosine-protein kinase FLT3 (Homo sapiens) (UniProt P36888+Q96SW2)", "T1 sequence (P36888 27-993 limits assumed)": "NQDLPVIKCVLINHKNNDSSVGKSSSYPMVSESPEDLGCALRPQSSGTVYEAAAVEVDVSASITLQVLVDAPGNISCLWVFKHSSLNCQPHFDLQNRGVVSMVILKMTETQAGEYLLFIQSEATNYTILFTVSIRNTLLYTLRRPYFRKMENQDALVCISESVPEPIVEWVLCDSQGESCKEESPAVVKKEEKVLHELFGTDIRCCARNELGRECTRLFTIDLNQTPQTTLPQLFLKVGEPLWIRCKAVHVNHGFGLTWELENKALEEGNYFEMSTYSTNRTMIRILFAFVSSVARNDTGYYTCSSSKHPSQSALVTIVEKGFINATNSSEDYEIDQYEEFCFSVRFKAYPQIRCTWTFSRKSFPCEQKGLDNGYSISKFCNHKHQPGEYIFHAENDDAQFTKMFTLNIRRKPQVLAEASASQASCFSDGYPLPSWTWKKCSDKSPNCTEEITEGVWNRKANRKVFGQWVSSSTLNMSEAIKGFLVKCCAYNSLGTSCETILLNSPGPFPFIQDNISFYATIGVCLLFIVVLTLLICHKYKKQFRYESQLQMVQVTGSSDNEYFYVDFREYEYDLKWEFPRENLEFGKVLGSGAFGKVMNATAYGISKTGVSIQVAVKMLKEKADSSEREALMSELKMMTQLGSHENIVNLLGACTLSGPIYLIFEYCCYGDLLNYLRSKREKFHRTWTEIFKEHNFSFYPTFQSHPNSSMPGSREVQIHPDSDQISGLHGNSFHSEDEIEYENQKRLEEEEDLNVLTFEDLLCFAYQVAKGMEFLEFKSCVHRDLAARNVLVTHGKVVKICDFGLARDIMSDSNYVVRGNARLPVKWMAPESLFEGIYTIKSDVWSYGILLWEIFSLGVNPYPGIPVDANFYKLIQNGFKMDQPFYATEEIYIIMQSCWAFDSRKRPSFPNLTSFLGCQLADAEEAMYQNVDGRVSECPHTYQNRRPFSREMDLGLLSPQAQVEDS", "T1 sequence (Q96SW2 whole entry partner)": "as the sequence (Q96SW2 whole entry, looked up) above", "test": "PROTAC activity at CRBN/FLT3 in human MV4-11 cells at 0.1 to 0.5 uM preincubated for 90 mins with 4-hydroxythalidomide followed by compound addition and further incubated for 16 hrs by immunoblot analysis", "type": "cell-based", "conditions": "dose 0.1-0.5 µM"}, "MV4-11 [5]": {"system": "MV4-11", "test": "Induction of cell cycle arrest in human MV4-11 cells assessed as accumulation of cells at subG1 phase at 2.5 uM incubated for 16 hrs by PI staining based flow cytometry analysis (reference value: 10.51%)", "type": "functional"}, "MV4-11 [6]": {"system": "MV4-11", "test": "Induction of cell cycle arrest in human MV4-11 cells assessed as accumulation of cells at G1 phase at 0.1 uM incubated for 16 hrs by PI staining based flow cytometry analysis (reference value: 62.97%)", "type": "functional"}, "[7]": {"system": "Receptor-type tyrosine-protein kinase FLT3 (Homo sapiens), P36888 [UNDEFINED MUTATION]", "sequence (P36888 whole entry, looked up, change not shown)": "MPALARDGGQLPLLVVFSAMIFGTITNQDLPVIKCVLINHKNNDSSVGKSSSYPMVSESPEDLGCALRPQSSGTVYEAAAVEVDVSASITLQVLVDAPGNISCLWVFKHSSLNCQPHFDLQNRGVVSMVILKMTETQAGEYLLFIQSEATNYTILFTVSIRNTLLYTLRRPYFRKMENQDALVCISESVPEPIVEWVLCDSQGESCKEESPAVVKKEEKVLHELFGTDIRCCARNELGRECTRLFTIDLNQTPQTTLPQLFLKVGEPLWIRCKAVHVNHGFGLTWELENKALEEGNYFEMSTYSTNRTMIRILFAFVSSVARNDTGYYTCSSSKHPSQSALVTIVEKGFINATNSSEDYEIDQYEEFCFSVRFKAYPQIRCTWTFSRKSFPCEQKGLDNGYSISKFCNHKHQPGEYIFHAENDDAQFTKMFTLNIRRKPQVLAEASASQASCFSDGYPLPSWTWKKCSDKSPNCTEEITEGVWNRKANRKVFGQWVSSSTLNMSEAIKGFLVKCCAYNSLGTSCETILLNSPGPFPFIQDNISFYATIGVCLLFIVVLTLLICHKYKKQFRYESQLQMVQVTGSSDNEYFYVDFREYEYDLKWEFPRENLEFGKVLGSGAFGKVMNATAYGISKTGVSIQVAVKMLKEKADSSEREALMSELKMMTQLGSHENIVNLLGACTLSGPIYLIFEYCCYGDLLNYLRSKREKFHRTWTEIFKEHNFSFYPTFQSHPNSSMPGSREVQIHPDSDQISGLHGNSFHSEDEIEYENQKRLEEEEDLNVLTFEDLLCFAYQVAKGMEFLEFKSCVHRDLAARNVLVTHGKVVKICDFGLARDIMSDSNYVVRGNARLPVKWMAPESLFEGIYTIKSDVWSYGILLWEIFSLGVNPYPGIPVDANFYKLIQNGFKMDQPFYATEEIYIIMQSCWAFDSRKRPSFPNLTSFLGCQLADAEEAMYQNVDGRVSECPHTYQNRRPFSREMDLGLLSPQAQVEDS", "test": "Inhibition of FLT3 in human MV4-11 cells harboring FLT3-ITD mutation assessed as reduction in ERK1/2 phosphorylation at T202/Y204 residue at 0.004 to 2.5 uM incubated for 16 hrs by immunoblot analysis", "type": "cell-based", "conditions": "dose 0.004-2.5 µM"}, "MV4-11 [8]": {"system": "MV4-11", "test": "Induction of apoptosis in human MV4-11 cells assessed as activation of caspase 3 at 0.1 to 0.5 uM preincubated for 90 mins with 4-hydroxythalidomide followed by compound addition and further incubated for 16 hrs in presence of Ac-DEVD-AMC by fluorescence microplate reader analysis", "type": "functional, cell-based", "conditions": "dose 0.1-0.5 µM"}, "MV4-11 [9]": {"system": "MV4-11", "test": "Induction of cell cycle arrest in CRBN-deficient human MV4-11 cells assessed as accumulation of cells at G2/M phase at 0.5 uM incubated for 16 hrs by PI staining based flow cytometry analysis (reference value: 9.34%)", "type": "functional"}, "[10]": {"target": "T1, Protein cereblon/Receptor-type tyrosine-protein kinase FLT3 (Homo sapiens)", "test": "PROTAC activity at CRBN/FLT3 in human MV4-11 cells harboring FLT3-ITD mutation assessed as induction of protein degradation at low nanomolar concentrations incubated for 16 hrs by immunoblot analysis", "type": "cell-based"}, "MV4-11 [11]": {"system": "MV4-11", "test": "Induction of apoptosis in human MV4-11 cells assessed as activation of caspase 7 at 0.1 to 0.5 uM preincubated for 90 mins with 4-hydroxythalidomide followed by compound addition and further incubated for 16 hrs in presence of Ac-DEVD-AMC by fluorescence microplate reader analysis", "type": "functional, cell-based", "conditions": "dose 0.1-0.5 µM"}, "MV4-11 [12]": {"system": "MV4-11", "test": "Downregulation of Myb gene expression in human MV4-11 cells incubated for 4 hrs by qRT-PCR analysis", "type": "functional, cell-based", "conditions": "dose 0.004-2.5 µM"}, "Kasumi 1": {"system": "Kasumi 1", "test": "Antiproliferative activity against human Kasumi 1 cells assessed as cell growth inhibition incubated for 72 hrs by resazurin dye based fluorescence analysis", "type": "functional"}, "MV4-11 [13]": {"system": "MV4-11", "test": "Induction of cell cycle arrest in CRBN-deficient human MV4-11 cells assessed as accumulation of cells at S phase at 0.1 uM incubated for 16 hrs by PI staining based flow cytometry analysis (reference value: 36.91%)", "type": "functional"}, "MV4-11 [14]": {"system": "MV4-11", "test": "Induction of cell cycle arrest in CRBN-deficient human MV4-11 cells assessed as accumulation of cells at G2/M phase at 2.5 uM incubated for 16 hrs by PI staining based flow cytometry analysis (reference value: 9.34%)", "type": "functional"}, "MV4-11 [15]": {"system": "MV4-11", "test": "Induction of cell cycle arrest in human MV4-11 cells assessed as accumulation of cells at G1 phase at 0.004 uM incubated for 16 hrs by PI staining based flow cytometry analysis (reference value: 62.97%)", "type": "functional"}, "MV4-11 [16]": {"system": "MV4-11", "test": "Induction of apoptosis in human MV4-11 cells assessed as activation of caspase 7 incubated for 16 hrs in presence of Ac-DEVD-AMC by fluorescence microplate reader analysis", "type": "functional, cell-based", "conditions": "dose 0.004-2.5 µM"}, "MV4-11 [17]": {"system": "MV4-11", "test": "Induction of cell cycle arrest in human MV4-11 cells assessed as accumulation of cells at subG1 phase at 0.1 uM incubated for 16 hrs by PI staining based flow cytometry analysis (reference value: 10.51%)", "type": "functional"}, "MV4-11 [18]": {"system": "MV4-11", "test": "Induction of cell cycle arrest in CRBN-deficient human MV4-11 cells assessed as accumulation of cells at G2/M phase at 0.1 uM incubated for 16 hrs by PI staining based flow cytometry analysis (reference value: 9.34%)", "type": "functional"}, "MV4-11 [19]": {"system": "MV4-11", "test": "Induction of cell cycle arrest in CRBN-deficient human MV4-11 cells assessed as accumulation of cells at sub-G1 phase at 2.5 uM incubated for 16 hrs by PI staining based flow cytometry analysis (reference value: 12.52%)", "type": "functional"}, "MV4-11 [20]": {"system": "MV4-11", "test": "Induction of cell cycle arrest in CRBN-deficient human MV4-11 cells assessed as accumulation of cells at S phase at 2.5 uM incubated for 16 hrs by PI staining based flow cytometry analysis (reference value: 36.91%)", "type": "functional"}},
  "note": "Active and inactive are the calls of the source. No cut-off for these calls is given here.",
  "data": [
    {"smiles": "NC1CCC(Nc2nc(Nc3ccc(N4CCN(CCOCCOCCNC(=O)CNc5cccc6c5C(=O)N(C5CCC(=O)NC5=O)C6=O)CC4)cc3)c3ncn(C4CCCC4)c3n2)CC1", "note": "(stereo unspecified)", "values": [
      {"measurement": "Activity", "setting": "[1]", "value": "inactive"},
      {"measurement": "Activity", "setting": "MV4-11 [2]", "value": 8.04, "unit": "%"},
      {"measurement": "Activity", "setting": "MV4-11 [3]", "value": 12.82, "unit": "%"},
      {"measurement": "Activity", "setting": "[4]", "value": "inactive"},
      {"measurement": "Activity", "setting": "MV4-11 [5]", "value": 79.82, "unit": "%"},
      {"measurement": "Activity", "setting": "MV4-11 [6]", "value": 89.61, "unit": "%"},
      {"measurement": "inhibition", "setting": "[7]", "value": "Active"},
      {"measurement": "Activity", "setting": "MV4-11 [8]", "value": "inactive"},
      {"measurement": "Activity", "setting": "MV4-11 [9]", "value": 3.91, "unit": "%"},
      {"measurement": "Activity", "setting": "[10]", "value": "inactive"},
      {"measurement": "Activity", "setting": "MV4-11 [11]", "value": "inactive"},
      {"measurement": "Activity", "setting": "MV4-11 [12]", "value": "Dose-Dependent Effect"},
      {"measurement": "GI50", "setting": "Kasumi 1", "value": "> 10", "unit": "µM"},
      {"measurement": "Activity", "setting": "MV4-11 [13]", "value": 6.07, "unit": "%"},
      {"measurement": "Activity", "setting": "MV4-11 [14]", "value": 4.56, "unit": "%"},
      {"measurement": "Activity", "setting": "MV4-11 [15]", "value": 69.48, "unit": "%"},
      {"measurement": "Activity", "setting": "MV4-11 [16]", "value": "Dose-Dependent Effect"},
      {"measurement": "Activity", "setting": "MV4-11 [17]", "value": 20.86, "unit": "%"},
      {"measurement": "Activity", "setting": "MV4-11 [18]", "value": 3.38, "unit": "%"},
      {"measurement": "Activity", "setting": "MV4-11 [19]", "value": 20.31, "unit": "%"},
      {"measurement": "Activity", "setting": "MV4-11 [20]", "value": 6.05, "unit": "%"}
    ]}
  ]
}
